Laboratory results taken from PubChem BioAssay (NCI).
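Method: 48-hour compound exposure of cells in 96-well plates, five concentrations, linear interpolation of endpoints. GI50 marks 50% less growth. Definition used: TGI = concentration required for complete inhibition of growth.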

Columns and labels:
Assay in all cases: NCI anticancer screen, dose series, 48 h
HL-60(TB) leukemia = system: HL-60(TB) leukemia
SK-MEL-28 melanoma = system: SK-MEL-28 melanoma
CCRF-CEM leukemia = system: CCRF-CEM leukemia
UACC-257 melanoma = system: UACC-257 melanoma
HCT-116 colon = system: HCT-116 colon
ACHN renal = system: ACHN renal
A549 NSCLC = system: A549 NSCLC
RXF 393 renal = system: RXF 393 renal
SNB-75 CNS = system: SNB-75 CNS
NCI-H23 lung = system: NCI-H23 lung
LOX IMVI melanoma = system: LOX IMVI melanoma
HCT-15 colon = system: HCT-15 colon
SF-295 CNS = system: SF-295 CNS
UACC-62 melanoma = system: UACC-62 melanoma
OVCAR-3 ovarian = system: OVCAR-3 ovarian
SF-268 CNS = system: SF-268 CNS
RPMI-8226 leukemia = system: RPMI-8226 leukemia
CAKI-1 renal = system: CAKI-1 renal
NCI-H226 lung = system: NCI-H226 lung
MDA-MB-231 breast = system: MDA-MB-231 breast
OVCAR-4 ovarian = system: OVCAR-4 ovarian
SNB-19 CNS = system: SNB-19 CNS
BT-549 breast = system: BT-549 breast
SW-620 colon = system: SW-620 colon
A498 renal = system: A498 renal
SK-OV-3 ovarian = system: SK-OV-3 ovarian
MALME-3M melanoma = system: MALME-3M melanoma
SF-539 CNS = system: SF-539 CNS
UO-31 renal = system: UO-31 renal
NCI-H522 lung = system: NCI-H522 lung
IGROV1 ovarian = system: IGROV1 ovarian
HCC-2998 colon = system: HCC-2998 colon
786-0 renal = system: 786-0 renal
OVCAR-8 ovarian = system: OVCAR-8 ovarian
SK-MEL-5 melanoma = system: SK-MEL-5 melanoma
MCF7 breast = system: MCF7 breast
HS 578T breast = system: HS 578T breast
SN12C renal = system: SN12C renal
COLO 205 colon = system: COLO 205 colon
NCI/ADR-RES ovarian = system: NCI/ADR-RES ovarian
OVCAR-5 ovarian = system: OVCAR-5 ovarian
DU-145 prostate = system: DU-145 prostate
SR leukemia = system: SR leukemia
M14 melanoma = system: M14 melanoma
MOLT-4 leukemia = system: MOLT-4 leukemia
PC-3 prostate = system: PC-3 prostate
NCI-H460 lung = system: NCI-H460 lung
HOP-92 NSCLC = system: HOP-92 NSCLC
U251 CNS = system: U251 CNS
T-47D breast = system: T-47D breast
KM12 colon = system: KM12 colon
HOP-62 NSCLC = system: HOP-62 NSCLC
K-562 leukemia = system: K-562 leukemia
TK-10 renal = system: TK-10 renal
HT29 colon = system: HT29 colon
MDA-MB-435 = system: MDA-MB-435
SK-MEL-2 melanoma = system: SK-MEL-2 melanoma

## FC(F)(F)c1cccc(Nc2nc3ccccc3nc2Nc2cccc(C(F)(F)F)c2)c1
HL-60(TB) leukemia
  GI50: 1.86 µM
  TGI: 4.77 µM
SK-MEL-28 melanoma
  GI50: 1.71 µM
  TGI: 4.73 µM
CCRF-CEM leukemia
  GI50: 0.71 µM
  TGI: 3.84 µM
UACC-257 melanoma
  GI50: 2.02 µM
  TGI: 5.54 µM
HCT-116 colon
  GI50: 0.361 µM
  TGI: 1.52 µM
ACHN renal
  GI50: 0.415 µM
  TGI: 2.23 µM
A549 NSCLC
  GI50: 0.368 µM
  TGI: 2.81 µM
RXF 393 renal
  GI50: 0.882 µM
  TGI: 2.34 µM
SNB-75 CNS
  GI50: 1.15 µM
  TGI: 6.71 µM
NCI-H23 lung
  GI50: 1.72 µM
  TGI: 6.31 µM
LOX IMVI melanoma
  GI50: 1.5 µM
  TGI: 3.07 µM
HCT-15 colon
  GI50: 0.515 µM
  TGI: 2.05 µM
SF-295 CNS
  GI50: 1.92 µM
  TGI: 5.41 µM
UACC-62 melanoma
  GI50: 1.56 µM
  TGI: 5.47 µM
OVCAR-3 ovarian
  GI50: 0.444 µM
  TGI: 4.3 µM
SF-268 CNS
  GI50: 1.29 µM
  TGI: 13 µM
RPMI-8226 leukemia
  GI50: 0.797 µM
  TGI: 3.95 µM
CAKI-1 renal
  GI50: 1.02 µM
  TGI: 8.78 µM
NCI-H226 lung
  GI50: 1.21 µM
  TGI: 2.98 µM
MDA-MB-231 breast
  GI50: 0.993 µM
  TGI: 2.73 µM
OVCAR-4 ovarian
  GI50: 2.93 µM
  TGI: 14.6 µM
SNB-19 CNS
  GI50: 0.732 µM
  TGI: 15.4 µM
BT-549 breast
  GI50: 2.71 µM
  TGI: 7.6 µM
SW-620 colon
  GI50: 1.71 µM
  TGI: 4.01 µM
A498 renal
  GI50: 0.663 µM
  TGI: 3.99 µM
SK-OV-3 ovarian
  GI50: 0.437 µM
  TGI: 1.58 µM
MALME-3M melanoma
  GI50: 2.13 µM
  TGI: 6.33 µM
SF-539 CNS
  GI50: 0.959 µM
  TGI: 3.12 µM
UO-31 renal
  GI50: 1.98 µM
  TGI: 11 µM
NCI-H522 lung
  GI50: 0.335 µM
  TGI: 1.63 µM
IGROV1 ovarian
  GI50: 3.2 µM
  TGI: 16.8 µM
HCC-2998 colon
  GI50: 2.93 µM
  TGI: 7.45 µM
786-0 renal
  GI50: 1.81 µM
  TGI: 3.91 µM
OVCAR-8 ovarian
  GI50: 0.745 µM
  TGI: 5.57 µM
SK-MEL-5 melanoma
  GI50: 0.481 µM
  TGI: 1.7 µM
MCF7 breast
  GI50: 2.04 µM
  TGI: 9.63 µM
HS 578T breast
  GI50: 2.67 µM
  TGI: 7.88 µM
SN12C renal
  GI50: 0.442 µM
  TGI: 2.85 µM
COLO 205 colon
  GI50: 0.682 µM
  TGI: 2.18 µM
NCI/ADR-RES ovarian
  GI50: 1.98 µM
  TGI: 11.4 µM
OVCAR-5 ovarian
  GI50: 0.454 µM
  TGI: 3.39 µM
DU-145 prostate
  GI50: 0.732 µM
  TGI: 13 µM
SR leukemia
  GI50: 1.11 µM
  TGI: 3.36 µM
M14 melanoma
  GI50: 0.972 µM
  TGI: 3.15 µM
MOLT-4 leukemia
  GI50: 1.51 µM
  TGI: 4.34 µM
PC-3 prostate
  GI50: 0.495 µM
  TGI: 7.61 µM
NCI-H460 lung
  GI50: 0.457 µM
  TGI: 10.1 µM
HOP-92 NSCLC
  GI50: 1.36 µM
  TGI: 4.67 µM
U251 CNS
  GI50: 0.427 µM
  TGI: 1.91 µM
T-47D breast
  GI50: 1.41 µM
  TGI: 4.73 µM
KM12 colon
  GI50: 1.99 µM
  TGI: 4.95 µM
HOP-62 NSCLC
  GI50: 0.762 µM
  TGI: 2.17 µM
K-562 leukemia
  GI50: 1.28 µM
  TGI: 5.61 µM
TK-10 renal
  GI50: 1.47 µM
  TGI: 3.8 µM
HT29 colon
  GI50: 0.391 µM
  TGI: 2.03 µM
MDA-MB-435
  GI50: 1.03 µM
  TGI: 2.88 µM

## Cn1cc(C2=C(c3cn(CCSC(=N)N)c4ccccc34)C(=O)NC2=O)c2ccccc21
HL-60(TB) leukemia
  GI50: 4.65 µM
  TGI: 10 µM
SK-MEL-28 melanoma
  GI50: 3.53 µM
  TGI: 7.06 µM
CCRF-CEM leukemia
  GI50: 1.38 µM
  TGI: 12.7 µM
UACC-257 melanoma
  GI50: 3.85 µM
  TGI: 7.79 µM
HCT-116 colon
  GI50: 1.45 µM
  TGI: 5.77 µM
ACHN renal
  GI50: 3.81 µM
  TGI: 7.74 µM
SK-MEL-2 melanoma
  GI50: 2.79 µM
  TGI: 6.22 µM
A549 NSCLC
  GI50: 3.94 µM
  TGI: 8.18 µM
RXF 393 renal
  GI50: 3.56 µM
  TGI: 8.23 µM
SNB-75 CNS
  GI50: 1.49 µM
  TGI: 5.84 µM
NCI-H23 lung
  GI50: 3.53 µM
  TGI: 7.92 µM
LOX IMVI melanoma
  GI50: 3.02 µM
  TGI: 6.52 µM
HCT-15 colon
  GI50: 5.21 µM
  TGI: 11.9 µM
SF-295 CNS
  GI50: 3.47 µM
  TGI: 7.39 µM
UACC-62 melanoma
  GI50: 3.94 µM
  TGI: 7.43 µM
OVCAR-3 ovarian
  GI50: 3.37 µM
  TGI: 6.74 µM
SF-268 CNS
  GI50: 3.91 µM
  TGI: 8.18 µM
RPMI-8226 leukemia
  GI50: 4.18 µM
  TGI: 10.1 µM
CAKI-1 renal
  GI50: 4.47 µM
  TGI: 9.25 µM
NCI-H226 lung
  GI50: 4.49 µM
  TGI: 12.2 µM
MDA-MB-231 breast
  GI50: 4.12 µM
  TGI: 8.29 µM
OVCAR-4 ovarian
  GI50: 3.88 µM
  TGI: 8.96 µM
SNB-19 CNS
  GI50: 4.74 µM
  TGI: 10.3 µM
BT-549 breast
  GI50: 4.11 µM
  TGI: 8.31 µM
SW-620 colon
  GI50: 3.25 µM
  TGI: 7.05 µM
A498 renal
  GI50: 4.22 µM
  TGI: 8.95 µM
SK-OV-3 ovarian
  GI50: 2.79 µM
  TGI: 6.56 µM
MALME-3M melanoma
  GI50: 4.08 µM
  TGI: 7.83 µM
SF-539 CNS
  GI50: 3.63 µM
  TGI: 7.62 µM
UO-31 renal
  GI50: 3.63 µM
  TGI: 7.71 µM
NCI-H522 lung
  GI50: 1.88 µM
  TGI: 5.64 µM
IGROV1 ovarian
  GI50: 4.92 µM
  TGI: 9.46 µM
HCC-2998 colon
  GI50: 4.13 µM
  TGI: 8.07 µM
786-0 renal
  GI50: 4.29 µM
  TGI: 10.7 µM
OVCAR-8 ovarian
  GI50: 3.95 µM
  TGI: 8.91 µM
SK-MEL-5 melanoma
  GI50: 3.83 µM
  TGI: 7.43 µM
MCF7 breast
  GI50: 1.19 µM
  TGI: 4.55 µM
HS 578T breast
  GI50: 3.24 µM
  TGI: 10.4 µM
SN12C renal
  GI50: 2.8 µM
  TGI: 6.37 µM
COLO 205 colon
  GI50: 1.13 µM
  TGI: 4.52 µM
NCI/ADR-RES ovarian
  GI50: 13.2 µM
  TGI: 25 µM
OVCAR-5 ovarian
  GI50: 6.25 µM
  TGI: 14.1 µM
DU-145 prostate
  GI50: 3.94 µM
  TGI: 7.81 µM
SR leukemia
  GI50: 1.23 µM
  TGI: 6.87 µM
M14 melanoma
  GI50: 3.74 µM
  TGI: 8.01 µM
MOLT-4 leukemia
  GI50: 1.98 µM
  TGI: 7.95 µM
PC-3 prostate
  GI50: 3.51 µM
  TGI: 8.4 µM
NCI-H460 lung
  GI50: 3.84 µM
  TGI: 7.69 µM
HOP-92 NSCLC
  GI50: 2.38 µM
  TGI: 8.78 µM
U251 CNS
  GI50: 2.91 µM
  TGI: 6.32 µM
T-47D breast
  GI50: 3.24 µM
  TGI: 8.25 µM
KM12 colon
  GI50: 3.13 µM
  TGI: 6.57 µM
HOP-62 NSCLC
  GI50: 3.81 µM
  TGI: 7.98 µM
K-562 leukemia
  GI50: 1.87 µM
  TGI: 6.1 µM
TK-10 renal
  GI50: 3.15 µM
  TGI: 6.54 µM
HT29 colon
  GI50: 1.31 µM
  TGI: 5.28 µM
MDA-MB-435
  GI50: 1.73 µM
  TGI: 5.25 µM
